{"source": "patent US20090130085A1", "about": "“Amidino-Compounds for Stabilizing Factor VII Polypeptide Formulations” (NOVO NORDISH HEALTHCARE AG, priority 2005, published 2009)", "target": "T1, rhFVIIa (Homo sapiens, UniProt P08709)", "T1 construct": "Typically, Factor VII is cleaved between amino acid residues 152 and 153 to yield Factor VIIa", "T1 sequence (P08709 61-212 limits assumed)": "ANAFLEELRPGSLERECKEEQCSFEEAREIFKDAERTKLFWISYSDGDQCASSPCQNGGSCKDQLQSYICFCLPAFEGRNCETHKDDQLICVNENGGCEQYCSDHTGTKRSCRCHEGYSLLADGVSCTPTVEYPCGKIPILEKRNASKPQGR", "T1 sequence (P08709 213-466 limits assumed)": "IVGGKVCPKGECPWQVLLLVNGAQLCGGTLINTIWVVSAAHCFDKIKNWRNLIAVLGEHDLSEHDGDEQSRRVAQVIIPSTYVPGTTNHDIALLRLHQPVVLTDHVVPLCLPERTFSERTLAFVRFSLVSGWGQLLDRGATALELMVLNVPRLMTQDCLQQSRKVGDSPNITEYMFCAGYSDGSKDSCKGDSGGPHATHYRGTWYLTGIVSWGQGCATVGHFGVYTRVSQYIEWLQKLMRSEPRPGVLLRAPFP", "experiment": "Clot assay / one-stage coagulation assay of stored rhFVIIa formulations", "assay_type": "biochemical", "details": "1 mM compound in 1.0 mg/mL rhFVIIa formulation, pH 6.5, stored at 5° C. and 25° C.", "source_text": "The biological activity of Factor VII (as Factor VIIa) in blood clotting derives from its ability to (i) bind to tissue factor (TF) and (ii) catalyze the proteolytic cleavage of Factor IX or Factor X to produce activated Factor IX or X (Factor IXa or Xa, respectively). Human Factor VIIa biological activity may be quantified by an assay measuring the ability of a preparation to promote blood clotting using Factor VII-deficient plasma and thromboplastin, as described, e.g., in U.S. Pat. No. 5,997,864. In this assay, biological activity is expressed as the reduction in clotting time relative to a control sample and is converted to “Factor VII units” by comparison with a pooled human […] standard containing 1 unit/ml Factor VII activity. […] Coagulation times (clotting times) are measured and compared to a standard curve using a reference standard in a parallel line assay. Alternatively, Factor VIIa biological activity may be quantified by (i) measuring the ability of Factor VIIa to produce Factor Xa in a system comprising TF embedded in a lipid membrane and Factor X. (Persson et al., J. Biol. Chem. 272:19919-19924, 1997); (ii) measuring Factor X hydrolysis in an aqueous system; (iii) measuring its physical binding to TF using an instrument based on surface plasmon resonance (Persson, FEBS Letts. 413:359-363, 1997) and (iv) measuring hydrolysis of a synthetic substrate. […]"}
{"compound": "COc1cccc([C@H](C)NC(=O)COC(=O)Nc2ccc(C(=N)N)cc2)c1", "note": "[Example 1, (S)-(4-carbamimidoylphenyl)carbamic acid [1-(3-methoxyphenyl)ethylcarbamoyl]methyl ester]", "values": [{"measurement": "stabilizing effect with respect to retention of activity of FVIIa", "value": "marked stabilizing effect"}]}
